Results reported in patent publication US9474730B2, “Methods and compositions for use with K-ras mediated disorders” (Board of Regents of the University of Texas System, priority 2012, dated 2016).

Tests used:
[1] = biological target: T1, GFP-CTH (mGFP-tagged C-terminal region of H-ras) in MDCK cells (Homo sapiens, UniProt P01112); assay: High throughput cell-based screen: plasma membrane localization of GFP-CTH; set-up: species or system canine; conditions: positive control
T1 construct: hypervariable region of H-ras (amino acids 166-189) cloned onto the carboxy terminus of monomeric GFP; expressed in transfected cells

[2] = biological target: T2, GFP-K-rasG12V in MDCK or BHK cells (Homo sapiens, UniProt P01116, G12V); assay: Cellular fractionation (P100/S100) with quantitative Western blotting, GFP-K-rasG12V; type: cell-based, canine (MDCK), hamster (BHK); conditions: 48 hours
T2 construct: MDCK and BHK cells expressing GFP-tagged full length constitutively active Ras (G12V) proteins; expressed in transfected cells
Experimental: Following treatment, membrane (P100) and soluble (S100) protein fractions were prepared and analyzed by quantitative Western blotting.
(§1) Preparation of whole-cell lysates: cells were lysed in Buffer B (50 mM Tris [pH 7.5], 75 mM NaCl, 25 mM NaF, 5 mM MgCl2, 5 mM EGTA, 1 mM dithiothreitol, 100 μM NaVO4, 1% Nonidet P-40 plus protease inhibitors). Cellular fractionation: cells were incubated in Buffer A (10 mm Tris-HCl, pH 7.5, 25 mm NaF, 5 mm MgCl2, 1 mm EGTA, 1 mm dithiothreitol, 100 μm NaVO4 plus protease inhibitors) for 30 minutes on ice and lysed by passing through a 27 G needle 30 times. The post nuclear supernatant was centrifuged at 100,000 g for 30 minutes and the membrane pellet was resuspended in Buffer A containing 1% Triton X-100.
(§2) SDS-PAGE and Western blotting with the specified antibody were performed using 20 μg of each whole cell lysate/P100 fraction and volumes of S100 equal to that of the corresponding P100. Signal was detected by enhanced chemiluminescence (SuperSignal; Pierce, Thermo Fisher Scientific, Rockford, Ill.) and imaged by FluorChemQ (Alpha Inotech, San Leandro, Calif., USA). Quantification of intensities was performed using FluorChemQ software.

[3] = system: BHK cells stably expressing K-rasG12V; assay: Signaling downstream of oncogenic K-ras by quantitative Western blotting; type: cell-based, hamster; conditions: other Ca2+ channel blockers and ionomycin
Experimental: FIG. 5: Illustrates that fendiline HCl inhibits Raf kinase activity and signaling downstream of oncogenic K-ras: BHK cells stably expressing K-rasG12V were treated with vehicle or fendiline HCl (6 μg/mL) for 48 h. (A) Raf kinase activity in membrane fractions prepared from the cells was measured in a coupled […] kinase assay. Data is shown as mean±SEM from 3 independent experiments. (B) ppMEK and ppERK in soluble protein fraction and pAkt levels in membrane protein fraction were measured by quantitative Western blotting. Actin and Akt were used as loading controls for soluble and membrane fractions, respectively. A representative blots are shown. Data is shown as mean±SEM from 3-4 independent experiments. Statistical significance was calculated using one way ANOVA and Student's T-test. (*=p<0.05), wherein experimentation was performed in accordance with principles described herein;
as §1
Quantification of intensities was performed using FluorChemQ software.

[4] = system: MAPK activation (pERK) in Hec1A cells; conditions: 48 h
Experimental: as §2

[5] = biological target: T3, GFP-CTK (mGFP-tagged C-terminal region of K-ras) in MDCK cells (Homo sapiens, UniProt P01116); assay: High throughput cell-based screen: plasma membrane localization of GFP-CTK; set-up: species or system canine; conditions: positive control, 250 ng/mL UCN-01, MDCK
T3 construct: hypervariable region of K-ras (amino acids 166-188) cloned onto the carboxy terminus of GFP; expressed in transfected cells
Experimental: FIG. 1: Illustrates results of a high throughput cell-based screening of chemical libraries: Madin-Darby Canine Kidney epithelial cells (MDCK) expressing monomeric green fluorescent protein (mGFP)-tagged C-terminal region of K- or H-ras (GFP-CTK and GFP-CTH) were seeded in 96 well plates and treated with drug libraries for 48 h. Cells were then fixed with paraformaldehyde and imaged by BD Pathway Imager in confocal mode; shown are representative images of cells treated with vehicle, […], and 10 μM FTI-276; wherein experimentation was performed in accordance with principles described herein;
In accordance with some embodiments described herein, wild type MDCK cells or MDCK cells expressing monomeric green fluorescent protein (mGFP)-tagged C-terminal region of K-ras or H-ras (GFP-CTK and GFP-CTH respectively) were seeded in triplicate in 96 well plates (Matrical) at a density of 30,000 cells/well and incubated for 24 h at 37° C. Compounds were individually added to test cells at a concentration of 4 μg/mL (concentration of DMSO 1%) and incubated for a further 48 h.
Cells were then fixed with 4% paraformaldehyde and stored in PBS at 4° C. until imaged. Plates were imaged using a BD Pathway High-Throughput Bioimager. Images were acquired by a 3×3 montage with 20× objective lens using GFP-confocal mode. […]

[6] = system: K-Ras-transformed Hec1A cells; assay: Proliferation assay (MTS), Hec-1a, fendiline versus U0126; conditions: 48 h, single dose of fendiline, U0126 renewed every 24 h
Experimental: The number of viable cells was quantified (absorbance at 490 nm) using the CellTiter 96 AQueous One Solution cell proliferation assay kit (Promega). […] Cell numbers were normalized to the corresponding vehicle-treated control. Statistical significance was calculated using Student's t test (*, P<0.05). […] Cell numbers were quantified using the CellTiter 96 AQueous One Solution cell proliferation assay (MTS) (Promega), according to the manufacturer's protocol.

[7] = system: CaCO-2 colon cancer cell line; assay: Proliferation assay (MTS), CaCO-2; type: cell-based; conditions: 72 h; wild type K-Ras, overexpressed
Experimental: (§3) (A) A panel of wild-type (WT) or oncogenic mutant (Mut) K-Ras-expressing tumor cells were seeded in 96-well plates and treated for 72 h with vehicle (DMSO) or various concentrations of fendiline. […] The graphs show relative mean numbers of viable cells±SEMs from 3 independent experiments. Cell lines expressing oncogenic mutant K-Ras are shown in red, and cell lines that express wild-type K-Ras are shown in black. NCI H1299 cells (shown in blue) express wild-type K-Ras but mutant N-Ras. CaCO-2 cells (shown in green) overexpress wild-type K-Ras. (B) K-Ras levels in whole-cell lysates of SNU-C1, CaCO-2, and SK-CO-1 cells were quantified by Western blotting. The graphs show means±SEMs for 3 isolates of each cell line (indicated as 1, 2, and 3). K-Ras expression was normalized to the SNU-C1 sample.
(§4) After 24 h, fresh growth medium supplemented with 1% vehicle (DMSO), various concentrations of fendiline, or U0126 was added and cells were grown for 48 h or 72 h.

[8] = system: tumor cell lines expressing oncogenic mutant or wild-type K-Ras; assay: Proliferation assay (MTS), panel of pancreatic, endometrial, lung and colon tumor cell lines; type: cell-based; conditions: 72 h, various concentrations
Experimental: as §3, §4

SNU-C1 cells = assay: Proliferation assay (MTS), SNU-C1; type: cell-based; conditions: 72 h; wild type K-Ras
Experimental: as §3, §4

T1 sequence (P01112 166-189 limits assumed): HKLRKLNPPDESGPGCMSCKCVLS

SMILES: CSCC[C@H](NC(=O)c1ccc(NC[C@@H](N)CS)cc1-c1ccccc1)C(=O)O [FTI-276]
- localization of GFP-CTH ([1]; 10 μM FTI-276, MDCK): causes cytoplasmic localization of GFP-CTH

SMILES: C[C@H](CCC(=O)O)C[C@H](C)C[C@H](C)C(=O)/C=C(\O)[C@H](C)C[C@H](C)C/C=C/[C@@H](C)[C@@H](O)[C@@H](C)[C@@H](O)C[C@@H]1CC[C@@](C)([C@H]2CC[C@@](C)([C@@H](C)O)O2)O1 [Ionomycin, ionomycin]
- localization of Ras proteins (fractionation) ([2]; ionomycin 1 μM, GFP-K-rasG12V or GFP-H-rasG12V): did not significantly alter the localization of Ras proteins
- effect on Ras signaling [3]: None of the other Ca^2+ channel blockers tested or ionomycin had any effect on Ras signaling

SMILES: N#CC(=C(/N)Sc1ccccc1N)/C(C#N)=C(\N)Sc1ccccc1N [U0126]
- inhibition of MAPK activation (pERK levels), relative potency [4]: much more potent than fendiline

SMILES: CN[C@@H]1C[C@H]2O[C@@](C)([C@@H]1OC)n1c3ccccc3c3c4c(c5c6ccccc6n2c5c31)C(=O)N[C@@H]4O [UCN-01]
- localization of GFP-CTK [5]: causes mislocalization of both GFP-CTK and GFP-CTH
- localization of GFP-CTH ([1]; 250 ng/mL UCN-01, MDCK): causes mislocalization of both GFP-CTK and GFP-CTH

SMILES: COc1ccc([C@@H]2Sc3ccccc3N(CCN(C)C)C(=O)[C@@H]2OC(C)=O)cc1 [diltiazem]
- localization of GFP-K-rasG12V (fractionation) ([2]; other Ca2+ channel blockers, 10 μM): None of the other Ca^2+ channel blockers altered the localization of GFP-K-rasG12V

SMILES: CC(NCCC(c1ccccc1)c1ccccc1)c1ccccc1 (centres unmarked) [fendiline, 3,3-diphenyl-N-(1-phenylethyl)propan-1-amine]
- inhibition of cell proliferation, relative potency [6]: significantly more potent than U0126
- inhibition of proliferation of CaCO-2 [7]: potently inhibited
- inhibition of proliferation, oncogenic mutant versus wild-type K-Ras tumor cells [8]: more potently inhibited the proliferation of tumor cells that express oncogenic mutant K-Ras than tumor cells that express wild-type K-Ras
- inhibition of proliferation of SNU-C1 (SNU-C1 cells): unresponsive
